One compound from US11998515B1, “Enhancement of curcumin plasma levels using eucalyptol co-administration” (KING FAISAL UNIVERSITY, priority 2023, dated 2024) can be followed below.

Each structure is given as a SMILES string.

The data set in a line: Curcumin concentration in blood of rats after ten days of once-daily oral dosing, determined by HPLC/DAD. The data set is classed as in vivo. As to the method:
This experiment involved the use of 6 groups of rats (n=6):
Group 1: is the control group, where the animals received a solution of 0.5% carboxy methyl cellulose (CMC) in normal saline (formulation vehicle) once daily orally for ten days.
Group 2: Rats were given Eucalyptol (20 mg/kg) solubilized in 0.5% carboxy methyl cellulose (CMC) in normal saline once a day orally for ten days.
Group 3: Rats were administered curcumin (10 mg/kg) solubilized in 0.5% carboxy methyl cellulose (CMC) in normal saline once daily orally for ten days.
Groups 4, 5 and 6: Rats were given combinations of curcumin (10 mg/kg) with Eucalyptol (5 mg/kg, group 4), (10 mg/kg group 5), and (20 mg/kg, group 6), solubilized in 0.5% carboxy methyl cellulose (CMC) in normal saline orally once daily for ten days.
After the last dose on day 10, blood samples were withdrawn from animals after 0.5, 1, 2, 4, 6, 12 and 24 hours, and HPLC/DAD techniques determined the concentrations of curcumin.

For the compound `COc1cc(/C=C/C(=O)CC(=O)/C=C/c2ccc(O)c(OC)c2)ccc1O` [curcumin], the “time after administration at which curcumin concentration increased in serum” value (after last dose on day 10, curcumin 10 mg/kg alone) was 1 h. The “time after administration at which curcumin concentration reached the maximum concentration in serum” value (after last dose on day 10, curcumin 10 mg/kg alone (group 3)) was determined as 6 h.
